The source of these data is US20260217652A1, “PHENYL-SUBSTITUTED HETEROARYL COMPOUND AND PHARMACEUTICAL COMPOSITION COMPRISING SAME, PREPARATION METHOD THEREFOR AND USE THEREOF” (SHANGHAI MEIYUE BIOTECH DEVELOPMENT CO., LTD., priority 2023, published 2026).

For one series, the target named is T1, p38 MAPK/ATF2 (Homo sapiens, UniProt Q16539).
T1 construct: purchased Carna Biosciences (p38α); Sino Biological (ATF2) 04-152; 11599-H20B
In words: In vitro activity assay of p38 MAPK/ATF2 (HTRF). The conditions noted are these: p38α, Human ATF2 Protein, ATP; 35 min at 20° C. The class given is biochemical. The method, then:
The inhibitory effect of the compound on p38a-catalyzed ATF2 was evaluated by the HTRF method. The test compound was dissolved in DMSO to obtain a 10 mM stock solution and stored at −20° C. for future use. The initial concentration of the compound was 10 μM, with 0.25% DMSO, 5-fold serial dilution, 8 concentrations, and duplicate wells. The reaction buffer, consisting of 40 mM Tris pH 7.5, 20 mM MgCl2, 0.1 mg/mL BSA, and 50 μM DTT, was used to prepare 3.5×p38α (MAPK14, Carna Biosciences, 04-152) protein working solution, 3.5×Human ATF2 Protein (Sino Biological, 11599-H20B) working solution, and 3.5×ATP working solution. The reaction was terminated with 10 mM EDTA. The final 14 μL reaction system was performed in a 96-well plate (cisbio, 66PL96025), containing 0.29 ng/μL p38a, […] Human ATF2 Protein, and 25 µM ATP. After reacting at 20° C. for 35 min, the pre-prepared antibody solution (cibio, 63ADK015PEG, Phospho-ATF2 Eu Cryptate antibody, Phospho-ATF2 d2 antibody, diluted 40-fold with Detection buffer) was added to each well and incubated overnight at room temperature. The samples were then measured using a microplate reader (HTRF compatible reader). The concentration-effect curve was fitted using GraphPad Prism 8 software, and the compound concentration resulting in 50% inhibition, IC50, was calculated.

Another series has as its target T2, p38 MAPK/MK2 (Homo sapiens, UniProt Q16539).
T2 construct: purchased Carna (p38α); Abcam (MK2) 04-152; 79910
Briefly: In vitro activity assay of p38 MAPK/MK2 (Z-LYTE kinase assay kit). In kind it is biochemical. The conditions noted are these: active p38α, inactive MK2, Ser/Thr 4; 1-hour reaction at 20° C. A digest of the protocol:
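FRET-based Z-LYTE assay; compound tested from […] top concentration, 5-fold serial dilution, 8 points, duplicate wells, 1% DMSO. Kinase reaction 1 h at 20° C, then development reagent 1 h at room temperature; fluorescence read at Ex 400/Em 445 and 520 nm. IC50 from concentration-effect curve fit.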

A short description of series [1]: In vitro liver microsome stability, mouse. The class given is in vitro ADME. To be noted: liver microsomes, 0.5 mg/mL microsomes, 1 μM compound, NADPH, 37° C., read-out: Mouse liver microsomes Half-life T1/2. The method, then: (§1) The reference compound used in this experiment was Ketanserin, and the final concentration of microsomes in the experimental system was 0.5 mg/mL. The PBS buffer was a 50 mM K2HPO4 buffer. The concentration of the test compound was 1 μM. The microsomes were added to PBS, and the control/test compounds were respectively added to the corresponding reaction systems, mixed thoroughly, and pre-incubated in a 37° C. water bath for 5 minutes. The reaction was initiated by adding 20 mM NADPH solution under 37° C. water bath conditions (for the No NADPH samples, an equal volume of PBS solution was used as a substitute for the 20 mM NADPH solution). At the reaction time points of 0 min, 10 min, 30 mun, 60 min, and 90 min, 30 μL of reaction samples were taken from each reaction system (for the No NADPH samples, sampling was performed at 0 min and 90 min), and the reaction was immediately terminated by adding 300 μL of the internal standard acetonitrile solution. After centrifugation at 4000 rpm, the supernatant was taken and mixed thoroughly with an equal volume of pure water. The samples at each time point were analyzed by LC-MS/MS (AB Triple Quard 5500) to determine the compound content, and the T1/2 was calculated.

A short description of series [2]: In vitro liver microsome stability, human. In kind it is in vitro ADME. To be noted: liver microsomes, 0.5 mg/mL microsomes, 1 μM compound, NADPH, 37° C., read-out: Human liver microsomes Half-life T1/2. On the procedure: as §1
(In general: Liver microsomes are a subcellular fraction often used to study metabolism.)

Series [3] has as its system TNF-α in human PBMC cells. Briefly: In vitro TNF-α activity assay in human PBMC cell supernatant (LPS, ELISA). In kind it is cell-based. To be noted: Homo sapiens, PBMC, 24 h, LPS 100 ng/mL, read-out: p38 MAPK/TNF-α IC50. A digest of the protocol: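 Fresh human PBMCs (2×10^5/well) were pretreated 1 h with compound in a 6-point, 5-fold dilution series (0.4% DMSO final). They were then stimulated with 100 ng/mL LPS for 24 h at 37 °C. Supernatant TNF-α was measured by ELISA and IC50 was derived from concentration-response fitting.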
Background: In an ELISA, binding on a coated surface is turned into a signal by an enzyme label.

A short description of series [4]: In vitro liver microsome stability, rat. To be noted: liver microsomes, 0.5 mg/mL microsomes, 1 μM compound, NADPH, 37° C., read-out: Rat liver microsomes Half-life T1/2. The class given is in vitro ADME. On the procedure: as §1

pIC50: −log10 of the molar value. A value given as a limit tells only on which side of the number the result lay.

T2 sequence (Q16539 whole entry): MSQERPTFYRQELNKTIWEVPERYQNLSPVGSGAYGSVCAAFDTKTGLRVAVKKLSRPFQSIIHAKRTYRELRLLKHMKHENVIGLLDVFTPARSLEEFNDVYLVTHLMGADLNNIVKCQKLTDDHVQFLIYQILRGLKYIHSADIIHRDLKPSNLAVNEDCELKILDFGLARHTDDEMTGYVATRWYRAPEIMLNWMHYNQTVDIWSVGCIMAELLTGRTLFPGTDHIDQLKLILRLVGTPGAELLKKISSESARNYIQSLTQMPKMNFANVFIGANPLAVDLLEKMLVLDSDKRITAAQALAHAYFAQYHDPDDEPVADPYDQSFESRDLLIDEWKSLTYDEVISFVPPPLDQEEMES
T2 sequence (P49137 whole entry partner): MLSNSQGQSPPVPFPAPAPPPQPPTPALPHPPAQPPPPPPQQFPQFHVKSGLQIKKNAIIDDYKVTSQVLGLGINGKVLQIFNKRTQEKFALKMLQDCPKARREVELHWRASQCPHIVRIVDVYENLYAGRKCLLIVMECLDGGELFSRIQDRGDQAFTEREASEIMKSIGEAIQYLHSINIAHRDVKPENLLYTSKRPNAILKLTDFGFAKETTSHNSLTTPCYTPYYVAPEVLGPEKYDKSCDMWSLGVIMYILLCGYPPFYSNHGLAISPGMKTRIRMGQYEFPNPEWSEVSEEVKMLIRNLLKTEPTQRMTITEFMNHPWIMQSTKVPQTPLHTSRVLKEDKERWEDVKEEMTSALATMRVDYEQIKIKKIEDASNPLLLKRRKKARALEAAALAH

For `CNC(=O)c1cccc(-c2ncc(C)c(-n3c(C)cc(OCc4ncc(F)cc4F)c(Cl)c3=O)c2F)c1` [Compound 31-P1], the pIC50 against p38 MAPK/ATF2 was 5.73; against p38 MAPK/MK2, 8.55; in series [3], 8.42. Also, the results for the half-life at 1 μM in series [1], in series [2] and in series [4] were 1.79 h, above 4.66 h and 2.76 h, respectively.
